A word on the inhibition: it is the percentage by which the read-out fell short of the control.

Bounds are passed on as bounds.

Data on four compounds can be found in patent US10206908B2, “3-(1H-pyrrolo[3,2-C]pyridin-2-YL)-1H-pyrazolo[3,4-C]pyridines and therapeutic uses thereof” (Samumed, LLC, priority 2015, dated 2019).

Holding throughout (type): cell-based
For experiment [1], the system named is Wnt activity (Sp5-Luc reporter, SW480 colon carcinoma cells). The experiment can be described thus: Screening assay for Wnt activity: Sp5-Luc reporter gene assay in SW480 colon carcinoma cells. Conditions: Homo sapiens; for EC50: Sp5-Luc reporter, SW480 cells, overnight incubation. In a few lines: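 SW480 colon carcinoma cells stably carrying Sp5 promoter (eight TCF/LEF sites)-driven firefly luciferase, plated at 4,000 cells/well in 1% FBS medium and incubated overnight at 37° C. Luminescence normalised to DMSO-only cells; EC50 from four-parameter variable-slope nonlinear regression.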
In general terms: Reporter assays use an easily measured gene product as a stand-in for the process of interest.

The next experiment has as its system SW480 colon cancer cells. The experiment can be described thus: Cell viability assay (CellTiter-Blue) in SW480 colon cancer cells. Conditions: Homo sapiens; for EC50: 96 h, SW480 cell viability, four days. In a few lines: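 Fluorescence from resazurin reduced to resorufin by metabolically active cells was the read-out, taken after ~3 h with CellTiter-Blue.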
For orientation: The colour change of resazurin is a common sign of viable cells or microbes.

The test system of experiment [2] is primary human fibroblasts derived from IPF patients (LL29 cells) treated with TGF-β1. The experiment can be described thus: Inhibition of the fibrotic process: αSMA staining in TGF-β1 treated LL29 fibroblasts. Particulars: Fibroblast; for EC50: 96 h, % αSMA positive LL29 cells, TGF-β1 20 ng/mL, 4 days. In a few lines: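 Read-out after 4-day incubation: αSMA staining with 1 μM SYTOX green nuclear counterstain (30 min, room temperature). Cells were LL29 primary fibroblasts from IPF patients, in 1% FBS F12, exposed to TGF-β1 with test compound, referenced to TGF-β1/DMSO control wells.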

Experiment [3] relates to primary human mesenchymal stem cells (hMSCs). The experiment can be described thus: Induction of chondrogenesis in hMSCs (chondrogenic nodules, Rhodamine B/Nile Red). Particulars: 6 days; for EC50: concentration required to induce 50% levels of chondrogenesis vs TGF-β3, read-out: Conc (nM) of 50% TGF-β3 activity; for Emax: relative to TGF-β3 (10 ng/mL) positive control, read-out: Max. Activity as % TGF-β3 activity. In a few lines:
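Primary hMSCs at passages 3 to 6 were scored for chondrogenic nodules. Counts were normalized to the mean of 3 DMSO wells on the same plate, averaging 3 replicate wells per concentration. TGF-β3 served as positive control; reported values are the concentration giving 50% chondrogenesis plus maximum activity and its dose.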

The next experiment deals with IL-6 (THP-1 cells). The experiment can be described thus: IL-6 inhibition in LPS-stimulated THP-1 monocytes (HTRF). Particulars: Homo sapiens; for EC50: IL-6, THP-1 cells, LPS 500 ng/mL, 22 hours; for inhibition at 10 µM: THP-1, read-out: percent inhibition at 10 μM. In a few lines: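 THP-1 cells kept 24 h in 1% FBS medium, exposed to compound 2 h at 37 °C, then stimulated with 500 ng/mL LPS for 22 h. Secreted IL-6 quantified by HTRF (665/620 nm ratio), duplicates. Values normalized to DMSO; EC50 by four-parameter variable-slope regression.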

Where [4] appears, read: SW480, read-out: percent inhibition at 10 μM.

For `CN1CCN(c2nccc3[nH]c(-c4n[nH]c5cnc(-c6cncc(CN7CCC(F)(F)C7)c6)cc45)cc23)CC1` [Compound 250, 5-(5-((3,3-Difluoropyrrolidin-1-yl)methyl)pyridin-3-yl)-3-(4-(4-methylpiperazin-1-yl)-1H-pyrrolo[3,2-c]pyridin-2-yl)-1H-pyrazolo[3,4-c]pyridine], the EC50 in experiment [1] turned out to be 1100 nM; in the experiment with SW480 colon cancer cells, 2370 nM; in experiment [2] it was 641 nM; in experiment [3], 10 nM; in the experiment with IL-6 (THP-1 cells), 323 nM. The Emax in experiment [3] was 76%.
Consider `Fc1ccccc1-c1nccc2[nH]c(-c3n[nH]c4cnc(-c5cncnc5)cc34)cc12` [Compound 83, 3-(4-(2-Fluorophenyl)-1H-pyrrolo[3,2-c]pyridin-2-yl)-5-(pyrimidin-5-yl)-1H-pyrazolo[3,4-c]pyridine], for which the EC50 in experiment [1] is 2140 nM; in the experiment on SW480 colon cancer cells, 1600 nM; in experiment [2] it was 1040 nM; with IL-6 (THP-1 cells), above 10000 nM. Moreover, the Emax in experiment [3] was determined as 47%. Also, the inhibition at 10 µM in the experiment on IL-6 (THP-1 cells) was found to be 27.3%.
On to `CN(C)c1cncc(-c2cc3c(-c4cc5c(-c6cccs6)nccc5[nH]4)n[nH]c3cn2)c1` [Compound 343, N,N-Dimethyl-5-(3-(4-(thiophen-2-yl)-1H-pyrrolo[3,2-c]pyridin-2-yl)-1H-pyrazolo[3,4-c]pyridin-5-yl)pyridin-3-amine], for which the EC50 in experiment [1] was 1490 nM; in the experiment with SW480 colon cancer cells, 611 nM; in experiment [2] it was 694 nM; in experiment [3], 300 nM; in the experiment with IL-6 (THP-1 cells), above 10000 nM. Also, the Emax in experiment [3] was 51%. Further, the inhibition at 10 µM in the experiment on IL-6 (THP-1 cells) worked out at 0%.
Regarding `CCCCC(=O)Nc1cncc(-c2cc3c(-c4cc5c(-c6cc(F)cc(CNS(C)(=O)=O)c6)nccc5[nH]4)n[nH]c3cn2)c1` [Compound 495, N-(5-(3-(4-(3-Fluoro-5-(methylsulfonamidomethyl)phenyl)-1H-pyrrolo[3,2-c]pyridin-2-yl)-1H-pyrazolo[3,4-c]pyridin-5-yl)pyridin-3-yl)pentanamide], the inhibition at 10 µM in experiment [1] (setting [4]) worked out at 29.6%; in the experiment on SW480 colon cancer cells (setting [4]) it was 0%; in experiment [2] (read-out: percent inhibition at 10 μM), 3.3%; in the experiment with IL-6 (THP-1 cells), 34.8%. The EC50 in experiment [1] is above 10000 nM; with SW480 colon cancer cells, above 10000 nM; in experiment [2] it was above 10000 nM; in experiment [3] it was 10 nM; in the experiment with IL-6 (THP-1 cells), above 10000 nM. Also, the Emax in experiment [3] came to 111%.
